One data set concerns Valencia orange tree. The data set can be described thus: Study 1: comparison of injection and spray applications, tree vigor rating. The class given is in vivo. Particulars: Study 1 conclusion. On the procedure: Tree Vigor Ratings: 1=Lowest Vigor; 5=Highest Vigor. LSD stands for least significant difference and C.V. stands for Coefficient of Variance.
For Treatment 1, a 5,500 ppm solution of PG-OTC was prepared using distilled water. This solution then was acidified to pH 2 using hydrochloric acid. […] For Treatment 2, 2.5 g of PG-OTC was dissolved in 2 gallons of water. The resultant solution was sprayed onto the foliage of the trees at a rate of 1 quart (0.3125 g OTC·HCl) per tree (n=9). Vigor ratings were performed 60 days after application of treatments.

Data set [1] is described as follows: Uptake (injection time) of OTC solutions injected into rootstock of Valencia citrus trees. The class given is in vivo. Particulars: for Absorption of solution by trees: overall conclusions from functional testing, nS-nPG-OTC: after the first 50 mL. Here is the method:
The test article solutions (11,000 ppm) were prepared as above and were fluidly pressurized into latex injection devices (FLexInect™, TJ Biotech LLC, Buffalo, SD) and then were injected into rootstock of uniform, commercially grown, Valencia citrus trees. The injection devices were monitored to measure uptake rates of the solutions.
Table 2 presents the results of Trial 1, which used trees (n=10) having trunk diameters between 2.125″ and 3.00″.
Table 3 presents the results of Trial 2, which used trees (n=10) having trunk diameters between 3.00″ and 4.25″. 100 mL of the test solutions were injected with the ambient temperature between 80° F. and 90° F.
Table 4 presents the results of Trial 3, which used trees (n=30) having trunk diameters between 3.00″ and 4.25″. Up to 100 mL of the test solutions were injected with the ambient temperature <70° F., at which temperatures transpiration in the vascular system is reduced. In this trial, the injections were stopped at 120 minutes regardless of if injections were complete.

A short description of data set [2]: Visual monitoring of homogeneity of 11,000 ppm OTC test solutions in pH 2 water. The class given is physicochemical. Particulars: 11,000 ppm in pH 2 water, 10× magnification, immediately upon preparation at 75° F.; HCl. Here is the method:
Next, OTC solutions were prepared by first reducing the pH of water to pH 2 using hydrochloric acid. 11.0 g of PG-OTC (>95%) and non-sterile, nS-nPG-OTC (putatively 95%) each were dissolved into 1.0 L of the pH 2 water to generate 11,000 ppm test solutions, which then were monitored visually at 10× magnification. […] To elucidate the nonhomogeneous nature of the nS-nPG-OTC solutions, visualization was performed at 60× magnification, as is shown in FIG. 8 and wherein an abundance of actively growing needle-like crystals having lengths of approximately 10-250 μm are visible. These needle-like crystals likely comprise OTC and/or OTC and one or more impurities.

Data set [3] in a line: OTC residues in fruit after injection. The class given is in vivo. Particulars: when using PG-OTC solutions.

SMILES strings stand for the structures. Structures can show the parent of a compound that is named as a salt.

Turning to `CN(C)[C@@H]1C(O)=C(C(N)=O)C(=O)[C@@]2(O)C(O)=C3C(=O)c4c(O)cccc4[C@@](C)(O)[C@H]3[C@H](O)[C@@H]12` [PG-OTC, Oxytetracycline HCl], the “Effectiveness of trunk injection versus application of unacidified solution to foliage by spraying” value in the data set with Valencia orange tree is listed as “more effective”. Besides, the “Time (Minutes) of injection/uptake” value amounted to 8.4 b Minutes in data set [1] (Trial 1: 50 mL of 11,000 ppm solution, trunk diameter 2.125-3.00 in, 80-90° F., n=10, HCl); 18.2 b Minutes in data set [1] (Trial 2: 100 mL of 11,000 ppm solution, trunk diameter 3.00-4.25 in, 80-90° F., n=10, HCl); 81.1 b Minutes in data set [1] (Trial 3: up to 100 mL of 11,000 ppm solution, trunk diameter 3.00-4.25 in, <70° F., stopped at 120 minutes, n=30, HCl). Also, the “Absorption of solution by trees” value in data set [1] (HCl) is given as “readily absorbed”. Further, the Homogeneity of solution result in data set [2] was “essentially homogeneous”. Moreover, the “Residues in the fruit (within tolerance)” value in data set [3] is no more than 10 PPB.

Consider `CN(C)[C@@H]1C(O)=C(C(N)=O)C(=O)[C@@]2(O)C(O)=C3C(=O)c4c(O)cccc4[C@@](C)(O)[C@H]3[C@H](O)[C@@H]12` [nS-nPG-OTC, Oxytetracycline], for which the “Time (Minutes) of injection/uptake” value was 15.3 a Minutes in data set [1] (Trial 1: 50 mL of 11,000 ppm solution, trunk diameter 2.125-3.00 in, 80-90° F., n=10); 134.7 a Minutes in data set [1] (Trial 2: 100 mL of 11,000 ppm solution, trunk diameter 3.00-4.25 in, 80-90° F., n=10); 117.33 a Minutes in data set [1] (Trial 3: up to 100 mL of 11,000 ppm solution, trunk diameter 3.00-4.25 in, <70° F., stopped at 120 minutes, n=30). Further, the “Absorption of solution by trees” value in data set [1] is given as “marked decrease in absorption rate”.

The values are drawn from patent US20240099299A1, “ANTIMICROBIAL COMPOSITIONS AND METHODS FOR THEIR PREPARATION AND USE IN TREATING PLANT DISEASES” (priority 2021, published 2024).
